From patent US20120172450A1, “USE OF JASMONATE FOR IMPROVING SKELETAL MUSCLE FUNCTION” (BROADY HEALTH SCIENCES, LLC, priority 2010, published 2012)

Tested on: skeletal muscle fatigue and performance
Experiment: Effect of Jasmone on Muscle Fatigue and Performance in exercising subjects
Type: in vivo, human
Protocol: Subjects ranged from 43 to 72 years old. Subjects took 50-100 micrograms of jasmone once a day. All subjects were currently performing various exercise programs. Individual data was collected as to the changes that were noted upon jasmone supplementation.
Subject one, was a person who ran and trained with weights on a regular basis. They took a simplified stress test measuring time to maximum heart rate on treadmill exertion. Pre-Jasmone time on treadmill to target heart rate was 9 minutes. Two weeks after taking Jasmone, stress test results improved to 11 minutes. After 4 weeks of jasmone protocol stress test time increased to 15 min. In addition, after 3 weeks they reported increased weight repetitions by 15 percent and within four weeks increased push ups by 20 percent with same level of exertion as before.
Subject two, was a person who ran on a regular basis. Prior to Jasmone, full exertion exercise routine consisted of approximately 2 miles at 4.5 miles per hour. After two weeks of Jasmone was able to increase routine to running time to 2.5 miles without difficulty.
Subject three (person one), was a person who biked on a regular basis. After 4 weeks of taking Jasmone they increased cycling distance by 50 percent and speed by 10 percent.
Subject four, a person reported who trained with weights on a regular basis, increased weight repetitions of 25% after 4 weeks of taking Jasmone. Subject four, a person regularly performed an exercise routine including weight machines. Prior to taking Jasmone, on a particular machine, they were able to perform 12 repetitions at 60 pds of weight. Two weeks after taking Jasmone was able to increase weight to 80 and repetitions increased to 14.
Subject five, was a person, who regularly exercised but due to travel was unable to maintain normal exercise routine during trial. […] Two examples of this include running through an airport carrying luggage and another running in extreme heat.

## CC/C=C\CC1=C(C)CCC1=O [Jasmone, jasmone]
Subject five, normal exercise routine not maintained during trial
  self-reported running ability: increased ability to run far and fast without getting winded
Subject four, after 4 weeks of taking Jasmone
  increase in weight repetitions: 25%
Subject four, after four weeks of Jasmone
  self-reported strength and endurance: felt increased strength and endurance
Subject four, two weeks after taking Jasmone, prior 12 repetitions
  repetitions on weight machine: 14
Subject four, two weeks after taking Jasmone, prior 60 pds
  weight on weight machine: 80 pds
Subject one, after 3 weeks, same level of exertion as before
  increase in weight repetitions: 15%
Subject one, after 4 weeks of jasmone, pre-Jasmone 9 minutes
  stress test time (time on treadmill to target heart rate): 15 min
Subject one, two weeks after taking Jasmone, 50-100 micrograms once a day, pre-Jasmone 9 minutes
  time on treadmill to target heart rate (simplified stress test): 11 min
Subject one, within four weeks, same level of exertion as before
  increase in push ups: 20%
Subject three (person one), after 4 weeks of taking Jasmone
  increase in cycling distance: 50%
Subject three, after 4 weeks of taking Jasmone
  increase in cycling speed: 10%
Subject two, after additional two weeks
  workout fatigue: workout fatigue continued to improve
Subject two, after two weeks of Jasmone, prior approximately 2 miles at 4.5 miles per hour
  running routine distance: 2.5 miles
